Experimental data as given in PubChem BioAssay AID248 (DTP/NCI, 2004).
Values joined by “and” are separate entries in the source; they are usually repeats but may differ in a detail not shown here. Equal values may be shown once. Toxic doses and inconclusive results are not listed. No stated cut-off is given here; in the data, active means T/C of 150% or more; inactive means T/C below 125%.

Tested on: L1210 leukemia ip in BDF1 mice, survival T/C
Experiment: NCI In Vivo Anticancer Drug Screen. Data for tumor model L1210 Leukemia (intraperitoneal) in B6D2F1 (BDF1) mice
Settings: higher = longer survival
In short: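 Survival endpoint. Drug-treated group vs vehicle group, expressed as T divided by C. Tumor passaged by transplantation.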

[1] = endpoint: mean survival time, dose: 100.0 mg/kg/injection, schedule: Q01DX009 (ip), vehicle: saline with Tween-80
[2] = endpoint: mean survival time, dose: 100.0 mg/kg/injection, schedule: Q04DX003 (ip), vehicle: saline with Tween-80
[3] = endpoint: mean survival time, dose: 200.0 mg/kg/injection, schedule: Q01DX009 (ip), vehicle: saline with Tween-80
[4] = endpoint: mean survival time, dose: 200.0 mg/kg/injection, schedule: Q04DX003 (ip), vehicle: saline with Tween-80
[5] = endpoint: mean survival time, dose: 400.0 mg/kg/injection, schedule: Q01DX009 (ip), vehicle: saline with Tween-80
[6] = endpoint: mean survival time, dose: 400.0 mg/kg/injection, schedule: Q04DX003 (ip), vehicle: saline with Tween-80
[7] = endpoint: mean survival time, dose: 50.0 mg/kg/injection, schedule: Q01DX009 (ip), vehicle: saline with Tween-80
[8] = endpoint: mean survival time, dose: 200.0 mg/kg/injection, schedule: Q04DX002 (ip), vehicle: Klucel (hydroxypropylcellulose) (HPC)
[9] = endpoint: mean survival time, dose: 400.0 mg/kg/injection, schedule: Q04DX002 (ip), vehicle: Klucel (hydroxypropylcellulose) (HPC)
[10] = endpoint: mean survival time, dose: 100.0 mg/kg/injection, schedule: Q01DX001 (ip), vehicle: saline
[11] = endpoint: mean survival time, dose: 200.0 mg/kg/injection, schedule: Q01DX001 (ip), vehicle: saline
[12] = endpoint: mean survival time, dose: 400.0 mg/kg/injection, schedule: Q01DX001 (ip), vehicle: saline
[13] = endpoint: mean survival time, dose: 100.0 mg/kg/injection, schedule: Q04DX003 (ip), vehicle: Klucel (hydroxypropylcellulose) (HPC)
[14] = endpoint: mean survival time, dose: 200.0 mg/kg/injection, schedule: Q04DX003 (ip), vehicle: Klucel (hydroxypropylcellulose) (HPC)
[15] = endpoint: mean survival time, dose: 100.0 mg/kg/injection, schedule: Q04DX003 (ip), vehicle: saline
[16] = endpoint: mean survival time, dose: 200.0 mg/kg/injection, schedule: Q04DX003 (ip), vehicle: saline

Measured: T/C

NS(=O)(=O)c1cc2c(cc1Cl)NCNS2(=O)=O
inactive: endpoint: median survival time, dose: 125.0 mg/kg/injection, schedule: Q12HX016 (oral), vehicle: Klucel (hydroxypropylcellulose) (HPC) 95 % of control | endpoint: median survival time, dose: 125.0 mg/kg/injection, schedule: Q12HX022 (oral), vehicle: Klucel (hydroxypropylcellulose) (HPC) 94 % of control | endpoint: median survival time, dose: 250.0 mg/kg/injection, schedule: Q12HX016 (oral), vehicle: Klucel (hydroxypropylcellulose) (HPC) 93 % of control | endpoint: median survival time, dose: 250.0 mg/kg/injection, schedule: Q12HX022 (oral), vehicle: Klucel (hydroxypropylcellulose) (HPC) 98 % of control | endpoint: median survival time, dose: 500.0 mg/kg/injection, schedule: Q12HX016 (oral), vehicle: Klucel (hydroxypropylcellulose) (HPC) 93 % of control | endpoint: median survival time, dose: 500.0 mg/kg/injection, schedule: Q12HX022 (oral), vehicle: Klucel (hydroxypropylcellulose) (HPC) 98 % of control

C[CH2][Ge]([Cl])([CH2]C)[CH2]C
inactive: endpoint: mean survival time, dose: 50.0 mg/kg/injection, schedule: Q04DX003 (ip), vehicle: saline with Tween-80 99 % of control

Cc1c(Cl)cccc1NC(=O)N1CCCC(C)C1 (stereo unspecified)
inactive: [1] 94 % of control and 90 % of control | endpoint: mean survival time, dose: 100.0 mg/kg/injection, schedule: Q04DX002 (ip), vehicle: saline with Tween-80 96 % of control and 89 % of control | [2] 96 % of control | [3] 90 % of control | endpoint: mean survival time, dose: 200.0 mg/kg/injection, schedule: Q04DX002 (ip), vehicle: saline with Tween-80 86 % of control and 89 % of control | [4] 102 % of control | [5] 93 % of control and 95 % of control | endpoint: mean survival time, dose: 400.0 mg/kg/injection, schedule: Q04DX002 (ip), vehicle: saline with Tween-80 93 % of control and 89 % of control | [6] 97 % of control

COc1ccc(/C=N/NC(=O)c2ccc(Cl)cc2)cc1
inactive: [7] 88 % of control | [1] 105 % of control | [3] 91 % of control

CCOC1(OCC)CCS(=O)(=O)C1c1ccccc1 (stereo unspecified)
inactive: endpoint: mean survival time, dose: 100.0 mg/kg/injection, schedule: Q01DX001 (ip), vehicle: acetone 104 % of control | endpoint: mean survival time, dose: 100.0 mg/kg/injection, schedule: Q01DX009 (ip), vehicle: acetone 98 % of control | endpoint: mean survival time, dose: 200.0 mg/kg/injection, schedule: Q01DX001 (ip), vehicle: acetone 98 % of control | endpoint: mean survival time, dose: 200.0 mg/kg/injection, schedule: Q01DX009 (ip), vehicle: acetone 104 % of control | endpoint: mean survival time, dose: 400.0 mg/kg/injection, schedule: Q01DX001 (ip), vehicle: acetone 96 % of control | endpoint: mean survival time, dose: 400.0 mg/kg/injection, schedule: Q01DX009 (ip), vehicle: acetone 100 % of control

CCOC(=O)c1cc(=O)ss1
inactive: [7] 100 % of control | [1] 101 % of control | [2] 96 % of control | [3] 92 % of control | [4] 97 % of control | [5] 94 % of control | [6] 106 % of control

CCCCCCCCCCC/C=N\[N+](C)(C)C
inactive: endpoint: mean survival time, dose: 12.5 mg/kg/injection, schedule: Q01DX009 (ip), vehicle: Klucel (hydroxypropylcellulose) (HPC) 108 % of control | endpoint: mean survival time, dose: 25.0 mg/kg/injection, schedule: Q01DX009 (ip), vehicle: Klucel (hydroxypropylcellulose) (HPC) 95 % of control

COC(=O)C(=O)CC(=O)c1ccc(Cl)cc1
inactive: endpoint: mean survival time, dose: 100.0 mg/kg/injection, schedule: Q04DX002 (ip), vehicle: Klucel (hydroxypropylcellulose) (HPC) 100 % of control | [8] 106 % of control | [9] 95 % of control

CN(C)c1ccc(C=Nc2ccc(O)cc2)cc1
inactive: [10] 88 % of control | [11] 94 % of control | [12] 96 % of control

COC(=O)Nc1cccc2c1-c1ccccc1C2=O
inactive: endpoint: mean survival time, dose: 50.0 mg/kg/injection, schedule: Q04DX003 (ip), vehicle: Klucel (hydroxypropylcellulose) (HPC) 95 % of control | [13] 95 % of control | [14] 100 % of control

CCOC(C#Cc1ccccc1)OCC
inactive: [15] 105 % of control | [16] 114 % of control | endpoint: mean survival time, dose: 400.0 mg/kg/injection, schedule: Q04DX003 (ip), vehicle: saline 95 % of control

C=CC[n+]1ccccc1C(c1ccccc1)c1ccccc1
inactive: endpoint: mean survival time, dose: 6.25 mg/kg/injection, schedule: Q01DX009 (ip), vehicle: saline with Tween-80 108 % of control | endpoint: mean survival time, dose: 12.5 mg/kg/injection, schedule: Q01DX009 (ip), vehicle: saline with Tween-80 97 % of control | endpoint: mean survival time, dose: 12.5 mg/kg/injection, schedule: Q04DX003 (ip), vehicle: saline with Tween-80 95 % of control | endpoint: mean survival time, dose: 25.0 mg/kg/injection, schedule: Q01DX009 (ip), vehicle: saline with Tween-80 92 % of control | endpoint: mean survival time, dose: 25.0 mg/kg/injection, schedule: Q04DX003 (ip), vehicle: saline with Tween-80 103 % of control

CC1c2cc(O)c(O)cc2CCN1C (stereo unspecified)
inactive: endpoint: mean survival time, dose: 75.0 mg/kg/injection, schedule: Q01DX001 (ip), vehicle: saline 104 % of control | endpoint: mean survival time, dose: 150.0 mg/kg/injection, schedule: Q01DX001 (ip), vehicle: saline 110 % of control

CC1=C/C=C/C(C)C(O)C(C)C(O)C(C)C(O)C(C)C(O)C(C)CC=C(C)C(=O)c2c(O)c(C)cc3c2C(=O)C(C)=C(NC1=O)C3=O (stereo unspecified)
inactive: [13] 103 % of control | [14] 100 % of control | endpoint: mean survival time, dose: 400.0 mg/kg/injection, schedule: Q04DX003 (ip), vehicle: Klucel (hydroxypropylcellulose) (HPC) 101 % of control

CCN(CC)CCN(CCN(CC)CC)c1ccc2ccccc2c1
inactive: endpoint: mean survival time, dose: 75.0 mg/kg/injection, schedule: Q01DX001 (ip), vehicle: acetone 111 % of control

COc1ccc(N2C(=O)C3C4c5ccccc5C(C3C2=O)[n+]2ccccc24)cc1 (stereo unspecified)
inactive: [15] 97 % of control | [16] 103 % of control

CCCCCCCCC(=O)N(C)OC
inactive: [2] 93 % of control | [4] 93 % of control

CCOC(=O)CCN(Cc1ccccc1)C(=S)Nc1ccccc1
inactive: endpoint: mean survival time, dose: 25.0 mg/kg/injection, schedule: Q01DX Z (ip), vehicle: methylcellulose (MC) 98 % of control

C[N+](C)(C)N1C(=O)C2C3c4ccccc4C(C2C1=O)[n+]1ccccc13 (stereo unspecified)
inactive: endpoint: mean survival time, dose: 9.38 mg/kg/injection, schedule: Q01DX001 (ip), vehicle: other 86 % of control | endpoint: mean survival time, dose: 18.75 mg/kg/injection, schedule: Q01DX001 (ip), vehicle: other 105 % of control

Cc1c2ccccc2c(CSCC(N)C(=O)O)c2ccc3ccccc3c12 (stereo unspecified)
inactive: [1] 87 % of control | [5] 87 % of control

O=[N+]([O-])c1ccnc(NC2CCCCC2)c1
inactive: [10] 97 % of control | [11] 96 % of control | [12] 96 % of control

NC(=O)NC(=O)C(Cl)c1ccccc1 (stereo unspecified)
inactive: endpoint: mean survival time, dose: 50.0 mg/kg/injection, schedule: Q01DX001 (ip), vehicle: carboxymethylcellulose (CMC) 103 % of control | endpoint: mean survival time, dose: 100.0 mg/kg/injection, schedule: Q01DX001 (ip), vehicle: carboxymethylcellulose (CMC) 97 % of control | endpoint: mean survival time, dose: 200.0 mg/kg/injection, schedule: Q01DX001 (ip), vehicle: carboxymethylcellulose (CMC) 103 % of control | endpoint: mean survival time, dose: 400.0 mg/kg/injection, schedule: Q01DX001 (ip), vehicle: carboxymethylcellulose (CMC) 101 % of control

COc1cccc(OC)c1OC
inactive: endpoint: mean survival time, dose: 87.5 mg/kg/injection, schedule: Q01DX009 (ip), vehicle: Klucel (hydroxypropylcellulose) (HPC) 106 % of control | endpoint: mean survival time, dose: 175.0 mg/kg/injection, schedule: Q01DX009 (ip), vehicle: Klucel (hydroxypropylcellulose) (HPC) 100 % of control | endpoint: mean survival time, dose: 350.0 mg/kg/injection, schedule: Q01DX009 (ip), vehicle: Klucel (hydroxypropylcellulose) (HPC) 97 % of control

CN(CCC#N)c1ccc(-c2cc(C(=O)O)c3cc4ccccc4cc3n2)cc1
inactive: [8] 110 % of control | [9] 95 % of control

CCOC(=O)c1ccccc1N(O)C(=O)Nc1ccc(Cl)cc1
inactive: [2] 100 % of control | [4] 105 % of control | [6] 103 % of control
